From US12304897B2, “15-PGDH inhibitors” (KYORIN PHARMACEUTICAL CO., LTD., priority 2019, dated 2025)

target: recombinant human 15-PGDH (Homo sapiens (Human), UniProt P15428); assay: 15-PGDH enzyme inhibition test; assay type: biochemical; conditions: 4 nM recombinant human 15-PGDH, 30 μM PGE2, 1 mM NAD+, fluorescence 340/440 nm after 60 min
Description: 15-PGDH Enzyme Inhibition Test
Test compounds and 4 nM recombinant human 15-PGDH (R&D systems) in 50 mM Tris-HCl (pH 8.0) containing 0.01% TWEEN 20 (Sigma) and 0.01% bovine gamma globulin (Sigma) were put into 384 Flat Bottom Black plates (Corning, 3820) and allowed to stand for 12 minutes at room temperature. Then, 30 μM PGE2 (Cayman chemical) and 1 mM NAD^+ (Sigma) were added to start reaction. Sixty minutes after the start of reaction, signals were measured at an excitation wavelength of 340 nm and a fluorescence emission wavelength of 440 nm using Synergy 2 (BioTeck). The intensity of the fluorescent signal obtained when an assay buffer was added in place of the test compounds and NAD^+ was defined as 100% and that obtained with the addition of NAD^+ was defined as 0%.

recombinant human 15-PGDH, sequence (P15428 whole entry): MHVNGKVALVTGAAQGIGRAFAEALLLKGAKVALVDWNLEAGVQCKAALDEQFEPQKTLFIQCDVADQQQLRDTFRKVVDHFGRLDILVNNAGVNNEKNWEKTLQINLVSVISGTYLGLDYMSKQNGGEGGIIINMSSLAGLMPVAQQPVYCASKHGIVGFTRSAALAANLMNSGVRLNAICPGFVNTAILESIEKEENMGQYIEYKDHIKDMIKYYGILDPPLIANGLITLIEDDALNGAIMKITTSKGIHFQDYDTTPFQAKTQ

First: O=C(c1cnc2c(-c3ccc4c(=O)[nH]oc4c3)cccc2c1)N1CCC(F)(F)CC1 [compound 141]
Second: Cn1oc2cc(-c3cccc4cc(C(=O)N5CCC(F)(F)CC5)cnc34)ccc2c1=O [compound 148]
The IC50 of the first is lower: < 3 nM for the first, 3 to 10 nM for the second. The first is the more potent here.

Cn1cnc2cc(-c3cccc4cc(C(=O)N5CCC(F)(F)CC5)ccc34)cnc2c1=O [compound 142] and Cn1cnc2cc(-c3cccc4cc(C(=O)N5CCC(F)(F)CC5)cnc34)ccc2c1=O [compound 164] cannot be ordered by IC50: < 3 nM for the first, < 3 nM for the second.

Cn1ccc2cc(-c3cccc4cc(C(=O)N5CCC(F)(F)CC5)cnc34)ccc2c1=O [compound 143] and Cn1ncc2cc(-c3cccc4cc(C(=O)N5CCC(F)(F)CC5)cnc34)ccc2c1=O [compound 147] cannot be ordered by IC50: < 3 nM for the first, < 3 nM for the second.

Cn1ccc2cc(-c3cccc4cc(C(=O)N5CCC(F)(F)CC5)cnc34)ncc2c1=O [compound 144] and Cn1ccc2cc(-c3cccc4cc(C(=O)N5CCC(F)(F)CC5)cnc34)cnc2c1=O [compound 146] cannot be ordered by IC50: ≥ 10 nM for the first, 3 to 10 nM for the second.

First: Cn1ncc2cc(-c3cccc4cc(C(=O)N5CCC(F)(F)CC5)cnc34)cnc2c1=O [compound 145]
Second: O=C(c1cnc2c(-c3ccn4c(=O)ccnc4c3)cccc2c1)N1CCC(F)(F)CC1 [compound 160]
The IC50 of the first is higher: 3 to 10 nM for the first, < 3 nM for the second.

CN1Cc2cc(-c3cccc4cc(C(=O)N5CC6(CCC6)C5)ccc34)cnc2C1=O [compound 150] and CN1Cc2cc(-c3cccc4cc(C(=O)N5C[C@H]6CCC[C@H]6C5)ccc34)cnc2C1=O [compound 153] cannot be ordered by IC50: < 3 nM for the first, < 3 nM for the second.

CN1Cc2cc(-c3cccc4cc(C(=O)N5CCCC6CC65)ccc34)cnc2C1=O (stereo not drawn) [compound 151] and CN1Cc2cc(-c3cccc4cc(C(=O)N5CC=CCC5)ccc34)cnc2C1=O [compound 152] cannot be ordered by IC50: < 3 nM for the first, < 3 nM for the second.

CCN(CC)C(=O)c1ccc2c(-c3cnc4c(c3)CN(C)C4=O)cccc2c1 [compound 154] and CCN(CC)C(=O)c1ccc2c(-c3ccc4c(=O)[nH]ncc4c3)cccc2c1 [compound 155] cannot be ordered by IC50: < 3 nM for the first, < 3 nM for the second.

CN1Cc2cc(-c3nccc4cc(C(=O)N5CCC(F)(F)CC5)ccc34)ccc2C1=O [compound 156] and Cn1ccc2cc(-c3c(F)ccc4cc(C(=O)N5CCC(F)(F)CC5)ccc34)ncc2c1=O [compound 157] fall in the same range of IC50: 3 to 10 nM for the first, 3 to 10 nM for the second.

Cn1ccc2cc(-c3c(F)ccc4cc(C(=O)N5CCC(F)(F)CC5)ccc34)ccc2c1=O [compound 158] and NCCn1ncc2cc(-c3cccc4cc(C(=O)N5CCC(F)(F)CC5)ccc34)ccc2c1=O [compound 162] cannot be ordered by IC50: < 3 nM for the first, < 3 nM for the second.

Cn1c(=O)[nH]c(=O)c2ccc(-c3cccc4cc(C(=O)N5CCC(F)(F)CC5)cnc34)cc21 [compound 159] and Cc1n[nH]c(=O)c2ccc(-c3cccc4cc(C(=O)N5CCC(F)(F)CC5)cnc34)cc12 [compound 165] cannot be ordered by IC50: < 3 nM for the first, < 3 nM for the second.

First: CS(=O)(=O)CCn1ncc2cc(-c3cccc4cc(C(=O)N5CCC(F)(F)CC5)ccc34)ccc2c1=O [compound 161]
Second: CN(C)C(=O)c1ccc2c(-c3ccn4c(=O)n(C)nc4c3)cccc2c1 [compound 166]
The IC50 of the first is lower: < 3 nM for the first, 3 to 10 nM for the second.
